Source: patent publication US8507494B2, “Heterocyclic quinolizine derived M1 receptor positive allosteric modulators” (Merck Sharp & Dohme Corp., priority 2010, dated 2013)

Molecular target: T1, acetylcholine muscarinic M1 receptor (Homo sapiens, UniProt P11229)
T1 construct: expressed in transfected cells; host or cells: CHOnfat cells (CHOnfat/hM1)
T1 sequence (P11229 1-460): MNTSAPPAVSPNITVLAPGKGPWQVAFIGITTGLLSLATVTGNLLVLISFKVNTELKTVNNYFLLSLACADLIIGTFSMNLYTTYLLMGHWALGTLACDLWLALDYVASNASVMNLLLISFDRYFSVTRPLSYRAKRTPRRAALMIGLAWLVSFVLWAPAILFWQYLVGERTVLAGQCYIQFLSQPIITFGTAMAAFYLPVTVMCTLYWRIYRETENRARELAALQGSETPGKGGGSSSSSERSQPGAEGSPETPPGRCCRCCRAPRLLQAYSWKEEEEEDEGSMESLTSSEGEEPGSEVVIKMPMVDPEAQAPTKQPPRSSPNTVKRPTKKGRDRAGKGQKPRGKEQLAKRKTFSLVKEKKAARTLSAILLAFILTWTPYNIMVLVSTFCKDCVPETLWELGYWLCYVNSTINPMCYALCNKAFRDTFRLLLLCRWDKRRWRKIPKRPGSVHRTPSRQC
Test: FLIPR intracellular calcium assay for M1 receptor positive allosteric modulator activity
Type: cell-based
Conditions: inflection point from FLIPR values; CHOnfat/hM1 cells; 4 min preincubation, then EC20 acetylcholine (3 nM final); read-out: M1 IP Value
Protocol: The assay studies the effect of one or several concentrations of test compounds on basal or acetylcholine-stimulated Ca^2+ levels using FLIPR.
Compounds are prepared and subjected to a preincubation period of 4 min. Thereafter, a single EC20 concentration of acetylcholine is added to each well (3 nM final). The intracellular Ca^2+ level of each sample is measured and compared to an acetylcholine control to determine any modulatory activity.
Cells: CHOnfat/hM1, hM2, hM3 or hM4 cells are plated 24 hr before the assay at a density of 18,000 cells/well (100 μL) in a 384 well plate. CHOnfat/hM1 and CHOnfat/hM3 Growth Medium: 90% DMEM (Hi Glucose); 10% HI FBS; 2 mM L-glutamine; 0.1 mM NEAA; Pen-Strep; and […] Geneticin, are added. For M2Gqi5CHOnfat and M4Gqi5CHOnfat cells, an additional 600 ug/ml hygromycin is added.
Equipment: 384 well plate, 120 μL addition plate; 96-well Whatman 2 ml Uniplate Incubator, 37° C., 5% CO2; Skatron EMBLA-384 Plate Washer; Multimek Pipetting System; Genesis Freedom 200 System; Mosquito System; Temo Nanolitre Pipetting System; and FLIPR^384 Fluorometric Imaging Plate Reader System are used.
Buffers. […]
After 60 min, the cells are washed three times with 100 μL of buffer, leaving 30 μL of buffer in each well. […] A signal test to check background fluorescence and basal fluorescence signal is performed. […]

Structure (SMILES) | EC50
Cc1ccnc(C2(C#N)CCN(Cc3cc4c(=O)n(-c5ccccc5F)nc-4n4ccccc34)CC2)c1 [Example 1, 1-{[2-(2-Fluorophenyl)-3-oxo-2,3-dihydropyrazolo[4,3-c]quinolizin-5-yl]methyl}-4-(4-methylpyridin-2-yl)piperidine-4-carbonitrile] | 175 nM
Cn1cc(N2CCN(Cc3cc4c(=O)n(-c5ccccc5F)nc-4n4ccccc34)CC2=O)cn1 [Example 2, 2-(2-Fluorophenyl)-5-{[4-(1-methyl-1H-pyrazol-4-yl)-3-oxopiperazin-1-yl]methyl}pyrazolo[4,3-c]quinolizin-3(2H)-one] | 322 nM
